# Test results: ChEMBL document CHEMBL3045954, “Synthesis and antidepressant activity of di substituted-5-aryl-1,2,4-triazoles” (Med Chem Res, 2012)
# The source made the active and inactive calls. The rule behind the calls is not given here.
# Tests used:
# Mus musculus [1] = organism: Mus musculus; assay: Behavioral effect in Mus musculus (mouse) assessed as effect on alertness after 3 hr; assay type: functional, organism-based
# Mus musculus [2] = assay: Antidepressant activity in overnight fasted Mus musculus (mouse) assessed as decrease in immobility time at 10 mg/kg, ip administered 60 min prior to testing measured for 5 min by tail suspension test (reference value: 169.8 +/- 13 secs); assay type: functional; conditions: route intraperitoneal
# Mus musculus [3] = assay: Antidepressant activity in overnight fasted Mus musculus (mouse) assessed as decrease in immobility time at 30 mg/kg, ip administered 60 min prior to testing measured for 5 min by tail suspension test (reference value: 169.8 +/- 13 secs); assay type: functional; conditions: route intraperitoneal
# Mus musculus [4] = assay: Acute toxicity in Mus musculus Swiss albino (mouse) up to 2000 mg/kg, ip measured for 1 month; assay type: organism-based; parameters: dose 2000 mg/kg, route intraperitoneal; conditions: in vivo, 730.5 h
# Mus musculus [5] = assay: Antidepressant activity in overnight fasted Mus musculus (mouse) assessed as decrease in immobility time at 100 mg/kg, ip administered 60 min prior to testing measured for 5 min by tail suspension test (reference value: 169.8 +/- 13 secs); assay type: functional; conditions: route intraperitoneal
Compound,Activity (Mus musculus [1]),Time (Mus musculus [2]) [s],Time (Mus musculus [3]) [s],Activity (Mus musculus [4]),Time (Mus musculus [5]) [s]
COc1ccc(-c2nc(SCCN(C3CCCCC3)C3CCCCC3)n[nH]2)cc1,inactive,101.3,96.3,Non-toxic,94.8
CN(C)CCSc1n[nH]c(-c2ccc(O)cc2)n1,inactive,161.2,150.3,Non-toxic,149
Cc1ccc(-c2nc(SCCN(C3CCCCC3)C3CCCCC3)n[nH]2)cc1,inactive,165,151.3,Non-toxic,150
CCN(CC)CCSc1n[nH]c(-c2ccccc2O)n1,inactive,173.8,163.5,Non-toxic,137.3
CN(C)CCSc1n[nH]c(-c2ccccc2O)n1,inactive,164.8,150.8,Non-toxic,150
Clc1ccc(-c2nc(SCCN(C3CCCCC3)C3CCCCC3)n[nH]2)c(Cl)c1,inactive,96.5,94.5,Non-toxic,90.5
CN(C)CCSc1n[nH]c(-c2ccccc2)n1,inactive,117.2,110.3,Non-toxic,102
Oc1ccc(-c2nc(SCCN(C3CCCCC3)C3CCCCC3)n[nH]2)cc1,inactive,157.5,126.2,Non-toxic,112.7
CN(C)CCCN1c2ccccc2CCc2ccccc21 [IMIPRAMINE],,95.8,,,
CCN(CC)CCSc1n[nH]c(-c2ccc(OC)cc2)n1,inactive,139,118.5,Non-toxic,103.8
Cc1ccc(-c2nc(SCCN(C)C)n[nH]2)cc1,inactive,172.8,168.2,Non-toxic,152.8
CCN(CC)CCSc1n[nH]c(-c2ccc(Cl)cc2)n1,inactive,129.7,115,Non-toxic,103.8
Clc1ccc(-c2nc(SCCN(C3CCCCC3)C3CCCCC3)n[nH]2)cc1,inactive,96.8,94.8,Non-toxic,89.2
CCN(CC)CCSc1n[nH]c(-c2ccccc2)n1,inactive,145.8,120.7,Non-toxic,108.3
CCN(CC)CCSc1n[nH]c(-c2ccc(C)cc2)n1,inactive,178.3,168.2,Non-toxic,151.2
Oc1ccccc1-c1nc(SCCN(C2CCCCC2)C2CCCCC2)n[nH]1,inactive,162.5,149.3,Non-toxic,150
CCN(CC)CCSc1n[nH]c(-c2ccc(Cl)cc2Cl)n1,inactive,121.8,110,Non-toxic,103.2
CCN(CC)CCSc1n[nH]c(-c2ccc(O)cc2)n1,inactive,171.8,167.3,Non-toxic,151.8
COc1ccc(-c2nc(SCCN(C)C)n[nH]2)cc1,inactive,116.3,111,Non-toxic,103.8
c1ccc(-c2nc(SCCN(C3CCCCC3)C3CCCCC3)n[nH]2)cc1,inactive,117,109.7,Non-toxic,101.7
CN(C)CCSc1n[nH]c(-c2ccc(Cl)cc2)n1,inactive,109.2,102.2,Non-toxic,96
CN(C)CCSc1n[nH]c(-c2ccc(Cl)cc2Cl)n1,inactive,109,101.8,Non-toxic,96.2
